Earlier results, collected in EP4260848A1, “PHARMACEUTICAL COMPOSITION FOR SOLID DOSAGE FORM CONTAINING NILOTINIB AND PROCESS FOR ITS PREPARATION” (Lotus Pharmaceutical Co., Ltd., priority 2022, dated 2023).
Structures can show the parent of a compound that is named as a salt.

Tests used:
[1] = not given; remark: listed apart in the source

aqueous solubility (all solid forms (anhydrates, hydrates, solvates)) | pKa1 ([1]; determined) | pKa2 ([1]; estimated) | solubility in aqueous solutions (dependence on pH) | SMILES
poor aqueous solubility |  |  |  | Cc1cn(-c2cc(NC(=O)c3ccc(C)c(Nc4nccc(-c5cccnc5)n4)c3)cc(C(F)(F)F)c2)cn1 [Nilotinib hydrochloride]
 | 2.1 | 5.4 | decreases with increasing pH | Cc1cn(-c2cc(NC(=O)c3ccc(C)c(Nc4nccc(-c5cccnc5)n4)c3)cc(C(F)(F)F)c2)cn1 [Nilotinib, 4-methyl-N-[3-(4-methylimidazol-1-yl)-5-(trifluoromethyl)phenyl]-3-[(4-pyridin-3-ylpyrimidin-2-yl)amino]benzamide]
